Assay results as given in ChEMBL document CHEMBL1201862, “PubChem BioAssay data set” (2004).
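Compound exposure: 48 hours, 5 concentrations, 96-well plates. GI50 marks 50% less growth.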 Active and inactive are the calls of the source. No stated cut-off is given here; in the data, active = GI50 up to about 1.1 µM and inactive = higher.

Key:
Assay in all cases: growth of human tumour cells (NCI), 48 h
[1] = tested on: MDA-MB-231
[2] = tested on: HT-29
[3] = tested on: MOLT-4
[4] = tested on: OVCAR-5
[5] = tested on: RXF 393
[6] = tested on: SNB-19
[7] = tested on: EKVX
[8] = tested on: COLO 205
[9] = tested on: UO-31
[10] = tested on: SF-295
[11] = tested on: IGROV-1
[12] = tested on: MDA-N
[13] = tested on: Malme-3M
[14] = tested on: PC-3
[15] = tested on: HL-60
[16] = tested on: NCI-H226
[17] = tested on: K562
[18] = tested on: BT-549
[19] = tested on: U-251
[20] = tested on: HCT-15

S=C1Cc2c([nH]c3ccccc23)-c2ccccc2N1
GI50 [1]: 42.9 µM (inactive)
GI50 [2]: > 100 µM (inactive)
GI50 [3]: 23.6 µM (inactive)
GI50 [4]: > 100 µM (inactive)
GI50 [5]: 18.3 µM (inactive)
GI50 [6]: 34.4 µM (inactive)
GI50 [7]: 40.4 µM (inactive)
GI50 [8]: > 100 µM (inactive)
GI50 [9]: 19.1 µM (inactive)
GI50 [10]: 98.6 µM (inactive)
GI50 [11]: 65.3 µM (inactive)
GI50 [12]: 96.8 µM (inactive)
GI50 [13]: 69.2 µM (inactive)
GI50 [14]: 21.5 µM (inactive)
GI50 [15]: > 100 µM (inactive)
GI50 [16]: 29.5 µM (inactive)
GI50 [17]: 47.5 µM (inactive)

Cc1oc2c(c1C)S(=O)(=O)C(C#N)C(c1ccccc1)N2 (configuration not stated)
GI50 [1]: > 100 µM (inactive)
GI50 [18]: 45.4 µM (inactive)
GI50 [2]: 67.6 µM (inactive)
GI50 [3]: 20.6 µM (inactive)
GI50 [4]: 91.6 µM (inactive)
GI50 [6]: > 100 µM (inactive)
GI50 [7]: > 100 µM (inactive)
GI50 [8]: 29.3 µM (inactive)
GI50 [9]: 41.5 µM (inactive)
GI50 [10]: 78.9 µM (inactive)
GI50 [11]: > 100 µM (inactive)
GI50 [12]: 29 µM (inactive)
GI50 [13]: 37.7 µM (inactive)
GI50 [19]: 55 µM (inactive)
GI50 [20]: 38.7 µM
GI50 [14]: 66.5 µM (inactive)
GI50 [16]: > 100 µM (inactive)

COc1ccc(N[S+]([O-])c2ccccc2OC)cc1 (configuration not stated)
GI50 [1]: 15 µM (inactive)
GI50 [2]: 18.1 µM (inactive)
GI50 [3]: 27 µM (inactive)
GI50 [4]: 46.5 µM (inactive)
GI50 [6]: 36.2 µM (inactive)
GI50 [7]: 38.9 µM (inactive)
GI50 [8]: 24.4 µM (inactive)
GI50 [9]: 12.3 µM (inactive)
GI50 [10]: 31.7 µM (inactive)
GI50 [11]: 7.87 µM (inactive)
GI50 [12]: 33.4 µM (inactive)
GI50 [13]: 19.6 µM (inactive)
GI50 [19]: 12.5 µM (inactive)
GI50 [20]: 5.16 µM
GI50 [15]: 17.7 µM (inactive)
GI50 [16]: 13.4 µM (inactive)
GI50 [17]: 8.28 µM (inactive)

C[S+](C)CC(=O)c1ccc2c(c1)Sc1ccccc1O2
GI50 [1]: 7.06 µM (inactive)
GI50 [18]: 2.18 µM (inactive)
GI50 [2]: 1.17 µM (inactive)
GI50 [3]: 3.29 µM (inactive)
GI50 [4]: 5.87 µM (inactive)
GI50 [5]: 3.78 µM (inactive)
GI50 [6]: 5.51 µM (inactive)
GI50 [7]: 3.44 µM (inactive)
GI50 [8]: 1.02 µM (active)
GI50 [9]: 3.08 µM (inactive)
GI50 [10]: 5.25 µM (inactive)
GI50 [11]: 2.75 µM (inactive)
GI50 [13]: 3.45 µM (inactive)
GI50 [19]: 7.19 µM (inactive)
GI50 [20]: 2.47 µM
GI50 [14]: 1.04 µM (active)
GI50 [15]: 1.61 µM (inactive)
GI50 [16]: 5.16 µM (inactive)
GI50 [17]: 3.21 µM (inactive)

Cn1c2ccc3cc2c(=S)c2cc(ccc21)OCCOCCOCCOCCOCCOCCO3
GI50 [18]: > 10 µM (inactive)
GI50 [2]: > 10 µM (inactive)
GI50 [3]: > 10 µM (inactive)
GI50 [4]: > 10 µM (inactive)
GI50 [5]: > 10 µM (inactive)
GI50 [6]: > 10 µM (inactive)
GI50 [7]: > 10 µM (inactive)
GI50 [8]: > 10 µM (inactive)
GI50 [9]: > 10 µM (inactive)
GI50 [10]: > 10 µM (inactive)
GI50 [11]: > 10 µM (inactive)
GI50 [12]: > 10 µM (inactive)
GI50 [13]: > 10 µM (inactive)
GI50 [19]: > 10 µM (inactive)
GI50 [20]: > 10 µM
GI50 [14]: > 10 µM (inactive)
GI50 [15]: > 10 µM (inactive)
GI50 [16]: > 10 µM (inactive)
GI50 [17]: > 10 µM (inactive)

O=P(O)(CN1CCN(CP(=O)(O)c2ccccc2)CCN(CP(=O)(O)c2ccccc2)CC1)c1ccccc1
GI50 [18]: > 100 µM (inactive)
GI50 [2]: 26.1 µM (inactive)
GI50 [3]: 26.4 µM (inactive)
GI50 [4]: > 100 µM (inactive)
GI50 [5]: 80 µM (inactive)
GI50 [6]: > 100 µM (inactive)
GI50 [7]: > 100 µM (inactive)
GI50 [8]: 69.3 µM (inactive)
GI50 [9]: > 100 µM (inactive)
GI50 [10]: > 100 µM (inactive)
GI50 [11]: > 100 µM (inactive)
GI50 [12]: 67.8 µM (inactive)
GI50 [13]: 56.2 µM (inactive)
GI50 [19]: 47.8 µM (inactive)
GI50 [15]: > 100 µM (inactive)
GI50 [16]: > 100 µM (inactive)
GI50 [17]: > 100 µM (inactive)

Cc1nc(Cl)nc(Cl)c1C
GI50 [18]: 75.7 µM (inactive)
GI50 [2]: > 100 µM (inactive)
GI50 [3]: > 100 µM (inactive)
GI50 [4]: > 100 µM (inactive)
GI50 [5]: > 100 µM (inactive)
GI50 [6]: > 100 µM (inactive)
GI50 [7]: > 100 µM (inactive)
GI50 [9]: > 100 µM (inactive)
GI50 [10]: > 100 µM (inactive)
GI50 [11]: > 100 µM (inactive)
GI50 [13]: > 100 µM (inactive)
GI50 [19]: > 100 µM (inactive)
GI50 [20]: > 100 µM
GI50 [14]: > 100 µM (inactive)
GI50 [15]: > 100 µM (inactive)
GI50 [16]: > 100 µM (inactive)
GI50 [17]: > 100 µM (inactive)

CO[C@H]1[C@@H](O)[C@@H](C)O[C@@H](O[C@H]2CC[C@@]3(C)[C@H](CC[C@@H]4[C@@H]3CC[C@]3(C)[C@@H](C5=CC(=O)OC5)[C@@H](OC(C)=O)C[C@]43O)C2)[C@@H]1O [NERITALOSIDE]
GI50 [1]: 0.198 µM (active)
GI50 [18]: 0.0331 µM (active)
GI50 [2]: 0.0461 µM (active)
GI50 [3]: 0.0211 µM (active)
GI50 [4]: 0.0914 µM (active)
GI50 [5]: 0.0164 µM (active)
GI50 [6]: 0.144 µM (active)
GI50 [7]: 0.0156 µM (active)
GI50 [8]: 0.156 µM (active)
GI50 [9]: 0.0177 µM (active)
GI50 [10]: 0.0461 µM (active)
GI50 [11]: 0.0371 µM (active)
GI50 [13]: 0.016 µM (active)
GI50 [19]: 0.0798 µM (active)
GI50 [20]: 0.0973 µM
GI50 [14]: 0.0256 µM (active)
GI50 [15]: 0.0566 µM (active)
GI50 [16]: 0.173 µM (active)
GI50 [17]: 0.141 µM (active)
